Each structure is given as a SMILES string.

By logP is commonly meant a log measure of how a compound divides between an organic and an aqueous phase. Read a high logP as higher lipophilicity.

As to `Cc1nc(OCCO)c(C#N)cc1-c1ccccc1`, the logP was 3.23.
Regarding `COCCOc1ncc(-c2ccncc2)cc1C#N`, the log partition coefficient (logP) worked out at 1.96.
As for `Cc1nc(OCCOCCO)c(C#N)cc1-c1ccncc1`, the figure is 1.81.
As for `Cc1nc(OCCO)c(C#N)cc1-c1ccncc1`, the figure is 1.83; as for `N#Cc1cc(-c2ccncc2)cnc1OCCOCCO`, 1.5; as for `COCCOc1nc(C)c(-c2ccncc2)cc1C#N`, 2.4.
For `COCCOc1nc(C)c(-c2ccccc2)cc1C#N`, the logP was 3.74.
For `COc1ncc(-c2ccncc2)cc1C#N` the value was 2.02; for `CCOc1ncc(-c2ccncc2)cc1C#N`, 2.59.
Consider `N#Cc1cc(-c2ccncc2)cnc1OCCCO`, for which the logP stood at 1.63.
For `N#Cc1cc(-c2ccncc2)cnc1Oc1ccccc1` the value was 3.09.
As for `COc1nc(C)c(-c2ccncc2)cc1C#N`, the figure is 2.41; as for `CC(O)COc1ncc(-c2ccncc2)cc1C#N` (centres undefined), 1.65.
Take `N#Cc1cc(-c2ccncc2)cnc1OCC(O)CO` (centres undefined): the logP was 0.76.

The values are drawn from the SangsterLogP compilation.
